The source of these data is publication PMC5456102, “NGR-peptide−drug conjugates with dual targeting properties” (PLoS ONE, 2017).

One experiment relates to DNA. The conditions noted are these: main Dau containing metabolite; cited from earlier work.
Experiment [1] has as its system HT-1080 (human fibrosarcoma) cells, CD13 positive. Description: In vitro cytostatic effect (6 h treatment + 66 h drug-free). Format: cell-based. The conditions noted are these: HT-1080, read-out: IC50, 6 h, HT1080 (cytostatic effect). As to the method: (§1) At 72 h, supernatant was removed from the cells, and viability was assessed by the PrestoBlue® reagent (Life Technologies), which was diluted in PBS to reach the concentration given in the manufacturer’s instruction. Curves were fitted by GraphPad Prism 5 software using the sigmoidal dose–response model (https://www.graphpad.com/scientific-software/prism/). The conjugates were serially diluted, 9 concentrations were measured in triplicates. […] IC50 values were averaged; statistical significance was calculated using unpaired t-tests. The cytostatic/cytotoxic effect of the cyclic NGR peptide-Dau conjugates was examined in vitro on CD13-positive HT-1080 human fibrosarcoma cells and on CD13-negative HT-29 human colon adenocarcinoma cells. High expression of CD13 in HT-1080 cells was confirmed by FACS, using the CD13-specific OKM13 antibody. […] We compared the toxicity of the conjugates and the free drug molecules. It is important to note that the free drug enters the cell via diffusion, while the conjugates are taken up by a receptor-mediated pathway, which is followed by the intracellular release of the drug molecule or its active metabolite. […] In the second experiment the conjugates were added to the cells for 72 h (cytotoxic effect).

Experiment [2] relates to HT-29 (human colon adenocarcinoma) cells, CD13 negative. Described as above. Type of experiment: cell-based. The settings on record: HT-29, read-out: IC50, 6 h, HT-29 (cytostatic effect). As to the method:
as §1

For experiment [3], the system named is HT-1080 (human fibrosarcoma) cells, CD13 positive. Description: In vitro cytotoxicity (72 h treatment). The settings on record: 72 h continuous treatment, PrestoBlue viability, 5000 cells/well, 9 concentrations in triplicates, IC50 averaged, tests carried out 3 times, read-out: IC50, 72 h, HT1080 (cytotoxic effect). Format: cell-based. As to the method:
as §1, with “In the case of cytotoxicity measurements, the drug containing medium was on the cells for the full period of the 72 h assay. At” for “At”

The subject of experiment [4] is HT-29 (human colon adenocarcinoma) cells, CD13 negative. Kind of experiment: In vitro cytotoxicity (72 h treatment). The settings on record: 72 h continuous treatment, PrestoBlue viability, 5000 cells/well, 9 concentrations in triplicates, IC50 averaged, tests carried out 3 times, read-out: IC50, 72 h, HT-29 (cytotoxic effect). Format: cell-based. As to the method: as §1, with “In the case of cytotoxicity measurements, the drug containing medium was on the cells for the full period of the 72 h assay. At” for “At”

Take `COc1cccc2c1C(=O)c1c(O)c3c(c(O)c1C2=O)C(OC1CC(N)C(O)C(C)O1)CC(O)(C(C)=NOCC(=O)NCC(=O)O)C3` (stereo not drawn) [Dau = Aoa-Gly-OH]: the “binding to DNA” value in the experiment with DNA is “binds efficiently to DNA”.

As a reminder, the IC50 is the concentration that inhibits the measured activity by half. As for `COc1cccc2c1C(=O)c1c(O)c3c(c(O)c1C2=O)C[C@@](O)(C(C)=O)C[C@@H]3O[C@H]1C[C@H](N)[C@H](O)[C@H](C)O1` [Daunomycin, daunomycin], the IC50 in experiment [1] turned out to be 700 ± 300 nM; in experiment [2], 700 ± 300 nM; in experiment [3], 230 ± 100 nM; in experiment [4], 150 ± 100 nM.
